Two compounds from BindingDB's records for doi:10.1021/jm980108d (Prassis Istituto Di Ricerche Sigma-Tau, 1998) can be followed below.

In the experiment the target is Sodium/potassium-transporting ATPase (Canis familiaris). Put plainly: Compound was evaluated for its ability to inhibit the specific [3H]-ouabain binding to dog kidney Na+/K+ ATPase.

With `C[C@]12CC[C@H](O)C[C@H]1CC[C@@H]1[C@@H]2CC[C@]2(C)[C@@H](/C=C/C=O)CC[C@]12O`, the IC50 (commonly the concentration needed to halve the response being measured) amounted to 60 nM.
In turn, `C[C@H]1/C(=C/C(=O)OCCN(C)C)CCC2C1C(=O)C[C@H]1C(C)(C)[C@@H](O)CC[C@]21C` (stereo partly drawn) [[(1R,4bR,7S,8aR)-7-Hydroxy-1,4b,8,8-tetramethyl-10-oxo-dodecahydro-phenanthren-(2E)-ylidene]-acetic acid 2-dimethylamino-ethyl ester] came in with an IC50 of 100 nM.
